Data on five compounds can be found in US20230103965A1, “NOVEL ACTIVATORS OF THE LIPIDATING TRANSPORTER ATP BINDING CASSETTE PROTEIN TYPE 1 (AB-CA1) AND THERAPEUTIC USES THEREOF” (RAMOT AT TEL-AVIV UNIVERSITY LTD., priority 2020, published 2023).

One data set concerns Rodent Astrocytes. The data set can be described thus: In situ Aβ plaque digestion by apoE4 astrocytes (orthogonal assay). It is filed as cell-based. The procedure: FIG. 7: Schematic representation of assay measuring in situ A$ plaque degradation by apoE3 and apoE4 astrocytes. The assay is designed to measure the ability of astrocytes to digest senile plaques from brain slides of APP mice, which is impaired in apoE4 expressing astrocytes.
FIG. 9: Activity of test compounds (HTS hits) in the plaque digestion assay. Positive control is CS-6253 (25 μg/ml). Test compound concentration is 50 μM.
In situ Aβ plaque degradation by apoE3 and apoE4 astrocytes. This assay is based on measurement of the ability of the astrocytes to clear Aβ plaques following their co-incubation with brain sections of 5×FAD mice, which contain Aβ plaques. Accordingly, 20 μm coronal frozen brain sections were prepared from 9-13-month-old 5×FAD mice using cryostat and placed on glass slides, 3-4 consecutive sections in each slide. The slides were kept at −80° C. until used. At the beginning of the experiment, the slices were incubated for 48 hr at 37° C. with apoE3 and apoE4 astrocytes (10^5 cells in 100 μl medium per slice) in the presence of 50 μM, or otherwise indicated concentrations, of the HTS hits. The slides were gently placed in round petri dishes with thick wet paper, surrounding the slides. PapPen was used to draw liquid repellent borders of the sections to avoid spillage of coating out of the slides. The slides were gently washed of all containing remains by placing them in PBS for 10 minutes, and were then fixated with 4% PFA for 10 minutes, followed by 0.1% Triton solution for 10 minutes. The slides were then incubated with blocking solution (8% Horse Serum, 0.3% Triton, 1 gr/ml BSA, 0.02% Sodium Azide in PBS) for 30 minutes after which they were immunohistochemically stained with primary anti-PAmyloid (6E10) antibody at a dilution of 1:750 in blocking solution for 1 hr at room temperature. This was then followed by washing (×5 with PBST) and incubation with the secondary antibody (Alexa Fluor® 488 donkey α-mouse IgG, A-21202 at dilution of 1:250 at room temperature for 45 minutes. Nuclei were stained with DAPI (Vektashield, Burlingame, Calif.; H-1200). Analysis of the Aβ plaque burden was performed as percentage of the area covered in plaques using the ImageJ software.
(i) Orthogonal assay which monitors the extent to which the hits can reverse the impaired ability of apoE4 astrocytes to digest Aβ senile plaques in vitro. The principle of this orthogonal assay is presented in FIGS. 7 & 8 [17], whereas the activity of the HTS hits in this assay is presented in FIG. 9.

In data set [1] the target is T1, ECD1 of ABCA1 (Homo sapiens, UniProt O95477).
T1 construct: The proteins used in these experiments were Extra-Cellular Domain 1 (ECD1) of ABCA1 and Extra-Cellular Domain 2 (ECD2); purchased Biomatick
T1 sequence (O95477 43-639 limits assumed): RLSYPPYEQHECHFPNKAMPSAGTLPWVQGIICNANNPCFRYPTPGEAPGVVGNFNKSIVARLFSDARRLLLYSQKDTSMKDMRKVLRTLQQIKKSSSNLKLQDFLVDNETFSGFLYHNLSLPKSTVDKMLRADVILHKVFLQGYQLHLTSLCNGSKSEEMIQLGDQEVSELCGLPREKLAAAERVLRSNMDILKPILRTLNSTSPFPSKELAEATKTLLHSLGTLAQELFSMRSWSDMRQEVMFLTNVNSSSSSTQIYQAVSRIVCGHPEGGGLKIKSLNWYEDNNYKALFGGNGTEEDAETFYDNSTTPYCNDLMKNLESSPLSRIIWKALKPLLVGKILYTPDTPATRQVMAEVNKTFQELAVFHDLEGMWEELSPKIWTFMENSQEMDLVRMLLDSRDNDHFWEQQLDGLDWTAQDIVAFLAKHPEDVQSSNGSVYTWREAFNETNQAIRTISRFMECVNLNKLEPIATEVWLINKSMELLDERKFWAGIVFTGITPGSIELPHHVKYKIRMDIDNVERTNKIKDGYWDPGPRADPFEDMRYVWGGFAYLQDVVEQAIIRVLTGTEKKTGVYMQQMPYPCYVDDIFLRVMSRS
The data set can be described thus: Microscale thermophoresis (MST) binding, labelled protein. Here is the method: (§1) Microscale thermophoresis (MST) measurements. MST measurements of the binding of the HTS hits to the extracellular domain (ECD) of ABCA1 were performed by two complimentary methods utilizing either fluorescently labeled proteins or the endogenous fluorescence of unlabeled proteins. This was pursued as follows:
The buffers of protein samples were exchanged on a desalting PD-10 column to MST labelling buffer (Nanotemper Technologies, NT.115). Each protein was labeled with Alexa Fluor 650 succinimidyl-ester (Thermo Fisher Scientific) in 3-fold excess and then incubated for 1 hr in the dark at room temperature. Excess dye was removed by PD-10 desalting columns. […] Protein-compound interactions were analyzed by microscale thermophoresis. […] Hits were prepared at the highest concentration soluble in MST buffer (Nanotemper)+10% DMSO. Next, hits were diluted by 2 in 16 consecutive tubes of 10 μl per tube. Then, 10 μl of the protein were added to each tube and centrifuged in 12,000 rpm for 10 minutes. Finally, the samples were loaded to the capillaries and were inserted to the MST machine. Experiments were performed on a microMonolith NT.115 Blue/Red (NanoTemper Technologies) in duplicates. Measurements were performed in standard glass capillaries (NanoTemper Technologies). […] All dissociation constants (KD) were calculated to a binding model assuming a 1:1 stoichiometry per binding partner.
(§2) The experiments were performed with the purified extracellual domains 1 (ECD1) and 2 (ECD2) of ABCA1 [18]. Two complementary MST tests were performed, in which either the proteins were labeled with a fluorescence moiety or the endogenous fluorescence of the unlabeled proteins was monitored).
In general terms: In MST a laser heats a spot of the sample, and binding alters the fluorescence response.

Data set [2] has as its system apoE4 astrocytic cell line. The data set can be described thus: Cellular viability / cytotoxicity of the hits. The class given is cell-based, Rodent. Conditions: 50 μM. The procedure:
FIG. 10: Effects of test compounds (HTS hits) on cellular viability. Experiments were performed on apoE4 astrocytic cell line in the presence of 50 μM of the indicated compounds. Viability was measured microscopically and by measurements of total cellular protein. (ii) Measurements of cytotoxicity of the hits.

Data set [3] has as its target T1, ECD1 of ABCA1. The data set can be described thus: Microscale thermophoresis (MST) binding, label free protein. Conditions: unlabelled ECD1. The procedure: as §1, §2

Regarding `Cc1nn(CC(=O)c2ccc(Br)s2)c(C)c1[N+](=O)[O-]` [Hit #3], the “Plaque digestion assay (50 μM) Rodent Astrocytes” value (from here on “Plaque digestion assay”) with Rodent Astrocytes (Table 2) and with Rodent Astrocytes (Table 4) was 78% each time. Further, on ECD1 of ABCA1 [1], the “Binding to ECD1 (Labelled MST) Amplitude” value was found to be 10.85 a.u. Also, the Kd (in general, the free concentration of one partner at which half of the binding sites on the other are occupied at equilibrium, for simple one-to-one binding) amounted to 278 µM at ECD1 of ABCA1 [1] and 178 µM on ECD1 of ABCA1 [3]. In addition, the “Viability Rodent Astrocytes” value in data set [2] (Table 2) and in data set [2] (Table 4) was “Normal” throughout. Besides, at ECD1 of ABCA1 [3], the “Binding to ECD1 (Label free MST) Amplitude” value is 39.96 a.u.

In the case of `CC(C)(C)C(=O)COC(=O)c1ccccc1SCc1cc(-c2ccco2)on1` [Hit #4], the “Plaque digestion assay” value in the data set with Rodent Astrocytes (Table 2) and with Rodent Astrocytes (Table 4) was 62% in each case. Also, the “Binding to ECD1 (Labelled MST) Amplitude” value on ECD1 of ABCA1 [1] was determined as 13.63 a.u. For the same compound, the Kd is 27 µM on ECD1 of ABCA1 [1] and greater than 350 µM on ECD1 of ABCA1 [3]. Also, the “Viability Rodent Astrocytes” value in data set [2] (Table 2) and in data set [2] (Table 4) was “Normal” each time. Moreover, the “Binding to ECD1 (Label free MST) Amplitude” value at ECD1 of ABCA1 [3] is listed as 16.45 a.u.

In the case of `O=[N+]([O-])c1ccc(N2CCCCC2)c2nonc12` [Hit #7], the “Plaque digestion assay” value in the data set with Rodent Astrocytes (Table 2) and in the data set with Rodent Astrocytes (Table 4) was 93% each time. For the same compound, on ECD1 of ABCA1 [1], the “Binding to ECD1 (Labelled MST) Amplitude” value stood at 22.05 a.u. The “Viability Rodent Astrocytes” value in data set [2] (Table 2) and in data set [2] (Table 4) was “Normal” in each case.

For the compound `C[C@]12CC[C@@H](O)CC1CCC1C2CC[C@](C)(C(=O)O)C1/C=C1/Nc2ccccc2C1=O` (some centres unmarked) [Hit #12], the “Plaque digestion assay” value in the data set on Rodent Astrocytes (Table 2) and in the data set on Rodent Astrocytes (Table 4) was 105% in each case. In addition, the “Binding to ECD1 (Labelled MST) Amplitude” value at ECD1 of ABCA1 [1] was 9.05 a.u. Further, the equilibrium dissociation constant (Kd) at ECD1 of ABCA1 [1] stood at 11 µM; on ECD1 of ABCA1 [3], 314 µM. The “Viability Rodent Astrocytes” value in data set [2] (Table 2) and in data set [2] (Table 4) was “Normal” in each case. On ECD1 of ABCA1 [3], the “Binding to ECD1 (Label free MST) Amplitude” value is reported as 90.25 a.u.

On to `CSC(SC)=C1CC/C(=C/c2ccc(N(C)C)cc2)C1=O` [Hit #14], for which the “Plaque digestion assay” value in the data set on Rodent Astrocytes (Table 2) and in the data set with Rodent Astrocytes (Table 4) was 134% throughout. In addition, the “Binding to ECD1 (Labelled MST) Amplitude” value at ECD1 of ABCA1 [1] worked out at 0 a.u. Also, the “Viability Rodent Astrocytes” value in data set [2] (Table 2) and in data set [2] (Table 4) was “Normal” in each case. The “Binding to ECD1 (Label free MST) Amplitude” value at ECD1 of ABCA1 [3] was determined as 0 a.u.
